Source: US20070021391A1, “Preventive/remedy for urinary disturbance” (priority 2003, published 2007)
Counter-ions that a name gives are not always drawn. Like-named read-outs stand apart in the source and are kept apart here.

Key:
[1] = test system: Hartley male guinea pig, urethane anesthesia; experiment: Pressure/flow study using guinea pig (Example 3); format: in vivo; conditions: for Amount of urination, proportion for value before administration (%) / At maximum urine flow rate Inner pressure of bladder, proportion for value before administration (%) / Maximum urine flow rate, proportion for value before administration (%): i.v.; for Bladder compliance, proportion for value before administration (%) / Bladder volume, proportion for value before administration (%): iv; for change of the parameters at urination and at collection of urine (text): intravenous administration
Experimental: A Hartley male guinea pig of 5 weeks old (Japan SLC) was used. After urethane anesthesia, the medial incision of the lower abdomen was carried out, and the bladder was exposed. Two injection needles (20G) with which a polyethylene tube (PE-100) was linked were inserted in the bladder, and one needle was used for injection of saline and another needle was used for measurement of the inner pressure of the bladder. The injection of saline was continuously carried out at a rate of 18 mL/h using a syringe pump (SP-100S, JMS, and Hiroshima), the injection was stopped after intermittent urination was confirmed 3 times at minimum, and the saline in the bladder was removed by suction. Injection was started again, and the injection was stopped when the raise of the inner pressure of the bladder just before urination was confirmed. The amount of urine excreted was measured by an electronic weighing machine (HX-400, A&D, and Tokyo) and the inner pressure of the bladder was measured using a pressure transducer (AP641G, NIPPON KODEN Corporation). The analogue data of the weight of urine and the inner pressure of the bladder were inputted in a multi-channel data analyzer (MP-100A-CE, Biopac systems), and analyzed by a proprietary software (Acqknowledge, Biopac systems). The sampling interval of data was 0.1 second and a low pass filter was applied to the data of discharge amount and urine flow rate at 0.5 Hz in order to remove noise. A delay time of 0.1 second in weighing the urine was rectified, and the urine flow rate was determined by differentiating the value of discharge amount. After a value before twice administration of the drug was measured, the drugs (the compound A, distigmine, neostigigmine and bethanechol) were intravenously administrated. Saline in the bladder was extracted after 10 minutes of administration of the compound A, bethanechol and neostigigmine and after 30 minutes of administration of distigmine, and injection was started again to measure data. The drugs were dissolved with distilled water so that administration volume was 0.5 mL/kg. Parameters (bladder volume, the amount of urination, the maximum urine flow rate, the inner pressure of the bladder at the maximum urine flow, bladder compliance) below were measured. The bladder compliance was calculated from intersection point (the threshold of bladder volume, threshold pressure) which was obtained by determining regression line in the respective curves of the inner pressure of the bladder at collection of urine and urinary reflex. The change rate before and after administration of the drug was calculated for the respective parameters and the calibration of significant difference was carried out by a solvent administration group and Dunnett calibration (Table 6 and Table 7).

[2] = test system: bladder muscle; set-up: species or system guinea pig; conditions: for effect on basic tension: drug alone
[3] = molecular target: T1, acetylcholine esterase of human erythrocyte origin (Homo sapiens, UniProt P22303); experiment: biochemical; format: biochemical; conditions: for IC50: mean value of twice tests
T1 construct: acetylcholine esterase of human erythrocyte origin; purchased Sigma, St. Louis, Mo., USA; host or cells: human erythrocytes
T1 sequence (P22303 32-617 isoform P22303-2 limits assumed): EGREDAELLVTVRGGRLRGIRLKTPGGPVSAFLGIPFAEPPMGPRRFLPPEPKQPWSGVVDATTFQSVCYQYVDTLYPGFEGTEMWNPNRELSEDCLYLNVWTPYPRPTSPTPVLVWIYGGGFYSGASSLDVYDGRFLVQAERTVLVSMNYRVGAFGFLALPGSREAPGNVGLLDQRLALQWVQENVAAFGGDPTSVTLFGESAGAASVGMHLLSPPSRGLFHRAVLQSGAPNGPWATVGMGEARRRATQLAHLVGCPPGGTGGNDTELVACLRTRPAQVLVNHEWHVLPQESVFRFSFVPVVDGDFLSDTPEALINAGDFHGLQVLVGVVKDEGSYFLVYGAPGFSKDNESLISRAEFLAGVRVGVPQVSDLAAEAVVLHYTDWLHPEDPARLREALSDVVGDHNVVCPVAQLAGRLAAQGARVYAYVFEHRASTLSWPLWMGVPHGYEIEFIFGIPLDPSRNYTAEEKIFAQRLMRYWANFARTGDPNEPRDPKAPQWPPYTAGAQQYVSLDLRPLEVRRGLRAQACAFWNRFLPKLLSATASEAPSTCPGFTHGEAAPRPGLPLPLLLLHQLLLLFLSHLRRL
Experimental: (§1) The AChE inhibitory activity and the BuChE inhibitory activity were determined by a thiocholine method (Ellman method) using acetylcholine esterase of human erythrocyte origin (Sigma, St. Louis, Mo., USA) and butyrylcholine esterase of human serum origin (Biogenesis, Poole, UK). Acetylcholine esterase or butyrylcholine esterase was diluted to a concentration of 0.2 IU/mL with 80 mM tris-HCL buffers (pH=7.4) containing 0.3% bovine serum albumin (BSA) to prepare an enzyme preparation. […] The stock solution was diluted at 3-fold common ratio with 10% DMSO and 80 mM tris-HCl buffers containing 0.3% BSA. On a 96 wells microplate, 20 μL of the drug solution with a given concentration, 30 μL of 80 mM tris-HCl buffers containing 0.3% BSA and 50 μL of the enzyme preparation were distributed, and incubated at room temperature for 1 hour after shaking for 10 seconds. […] For the respective drugs, the test was repeated twice. The % of control of the increase in light absorption was calculated at each concentration with respect to the respective drugs. % of control=increase in light absorption of drug/increase in light absorption of control×100

[4] = molecular target: T2, butyrylcholine esterase of human serum origin (Homo sapiens, UniProt P06276); experiment: biochemical; format: biochemical; conditions: for IC50: mean value of twice tests
T2 construct: butyrylcholine esterase of human serum origin; purchased Biogenesis, Poole, UK; host or cells: human serum
T2 sequence (P06276 29-602): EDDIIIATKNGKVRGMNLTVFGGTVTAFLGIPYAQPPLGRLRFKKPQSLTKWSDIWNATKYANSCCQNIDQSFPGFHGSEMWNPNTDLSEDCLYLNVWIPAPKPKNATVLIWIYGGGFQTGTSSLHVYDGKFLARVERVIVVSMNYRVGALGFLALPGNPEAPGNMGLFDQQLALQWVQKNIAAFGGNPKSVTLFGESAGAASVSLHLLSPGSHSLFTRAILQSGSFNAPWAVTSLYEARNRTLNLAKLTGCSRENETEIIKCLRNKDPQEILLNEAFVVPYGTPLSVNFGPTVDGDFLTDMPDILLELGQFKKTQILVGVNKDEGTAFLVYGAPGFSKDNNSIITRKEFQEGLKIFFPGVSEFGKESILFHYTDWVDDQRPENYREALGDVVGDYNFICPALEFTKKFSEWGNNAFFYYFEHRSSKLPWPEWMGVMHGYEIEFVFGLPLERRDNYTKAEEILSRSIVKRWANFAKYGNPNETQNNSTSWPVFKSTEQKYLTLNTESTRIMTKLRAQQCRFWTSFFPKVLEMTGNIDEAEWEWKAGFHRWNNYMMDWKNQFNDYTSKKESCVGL
Experimental: as §1

[5] = test system: Hartley male guinea pig, urethane anesthesia; experiment: Pressure/flow study using guinea pig under continuous phenylephrine (Example 4); format: in vivo; conditions: i.v., phenylephrine 3 μg/animal/min
Experimental: A parameter (the maximum urine flow rate) at urination and a parameter (bladder compliance) at the collection of urine were also measured by a method similar as Example 3 shown below, with respect to the compounds B1 to B6 ([Table 8]).
A Hartley male guinea pig of 4 to 5 weeks old (Japan SLC) was used. After urethane anesthesia, the medial incision of the lower abdomen was carried out, and the bladder was exposed. Two injection needles (20G) with which a polyethylene tube (PE-100) was linked were inserted in the bladder, and one needle was used for injection of saline and another needle was used for measurement of the inner pressure of the bladder. A catheter was inserted in fernoral vein, and phenylephrine was continuously administrated at a flow rate of 3 μg/animal/min. Saline was continuously injected at a speed of 18 mL/h, the injection was stopped after intermittent urination was confirmed 2 times at minimum, and the saline in the bladder was removed by suction. Injection was started again, and the injection was stopped when the raise of the inner pressure of the bladder just before urination was confirmed. The amount of urine eliminated was measured by an electronic weighing machine and the inner pressure of the bladder was measured using a pressure transducer. The analogue data of the weight of urine and the inner pressure of the bladder were inputted in a multi-channel data analyzer (MP-100A-CE, Biopac systems), and analyzed by a proprietary software (Acqknowledge, Biopac systems). As the parameters, the maximum urine flow rate and bladder compliance were measured. Saline in the bladder was extracted after 10 min of the intravenous administration of the compound, and injection was started again to carry out measurement. The compounds were dissolved with DMSO so that administration volume was 0.5 mL/kg. The change rate of respective parameters before and after administration of the compounds was calculated and the calibration of significant difference was carried out by a solvent administration group and t calibration.

[6] = 0.3 μM, 30 minutes, change of basic tension, 100 mM KCl contraction = 100%
[7] = 1 μM, 30 minutes, change of basic tension, 100 mM KCl contraction = 100%
[8] = 3 μM, 30 minutes, change of basic tension, 100 mM KCl contraction = 100%

CC(C[N+](C)(C)C)OC(N)=O (stereo not drawn) [Bethanechol]
Amount of urination, proportion for value before administration (%) ([1]; 0.1 mg/kg): 74.5 ± 13.1%
At maximum urine flow rate Inner pressure of bladder, proportion for value before administration (%) ([1]; 0.1 mg/kg): 107.0 ± 7.1%
Maximum urine flow rate, proportion for value before administration (%) ([1]; 0.1 mg/kg): 72.8 ± 9.8%
Bladder compliance, proportion for value before administration (%) ([1]; 0.1 mg/kg): 75.7 ± 9.8%
Bladder volume, proportion for value before administration (%) ([1]; 0.1 mg/kg): 86.0 ± 2.5%
Amount of urination, proportion for value before administration (%) ([1]; 0.3 mg/kg): 63.5 ± 8.5%
At maximum urine flow rate Inner pressure of bladder, proportion for value before administration (%) ([1]; 0.3 mg/kg): 99.2 ± 6.4%
Maximum urine flow rate, proportion for value before administration (%) ([1]; 0.3 mg/kg): 81.00 ± 12.1%
Bladder compliance, proportion for value before administration (%) ([1]; 0.3 mg/kg): 62.6 ± 6.8 %
Bladder volume, proportion for value before administration (%) ([1]; 0.3 mg/kg): 85.3 ± 6.3%
Amount of urination, proportion for value before administration (%) ([1]; 1 mg/kg): 39.1 ± 8.0 %
At maximum urine flow rate Inner pressure of bladder, proportion for value before administration (%) ([1]; 1 mg/kg): 104.9 ± 13.0%
Maximum urine flow rate, proportion for value before administration (%) ([1]; 1 mg/kg): 66.1 ± 12.3%
Bladder compliance, proportion for value before administration (%) ([1]; 1 mg/kg): 45.3 ± 4.9 %
Bladder volume, proportion for value before administration (%) ([1]; 1 mg/kg): 66.3 ± 6.0 %
change of the parameters at urination and at collection of urine (text) [1]: lowered the amount of urination, bladder volume and bladder compliance significantly

CN(C)C(=O)Oc1ccc[n+](C)c1 [Pyridostigmine]
Tension (%) [2, 6]: −1.49 ± 0.52%
Tension (%) [2, 7]: 0.04 ± 0.38%
Tension (%) [2, 8]: 2.87 ± 0.85 %
Tension (%) ([2]; 10 μM, 30 minutes, change of basic tension, 100 mM KCl contraction = 100%): 7.71 ± 1.30 %
Tension (%) ([2]; 30 μM, 30 minutes, change of basic tension, 100 mM KCl contraction = 100%): 14.38 ± 1.62 %
effect on basic tension [2]: increased basic tension significantly and concentration-dependently

CN(CCCCCCN(C)C(=O)Oc1ccc[n+](C)c1)C(=O)Oc1ccc[n+](C)c1 [Distigmine]
inhibition of the activity of human acetylcholine esterase [3]: inhibited the activity of human acetylcholine esterase
selectivity for acetylcholine esterase inhibitory activity (text, words) [3]: had scarcely selectivity
Selectivity b/a ([3]; BuChE IC50/AChE IC50 (Table 2)): 1.4
IC50 ([3]; read-out: Acetylcholine esterase IC50): 380 nM
Tension (%) ([2]; 0.1 μM, 30 minutes, change of basic tension, 100 mM KCl contraction = 100%): −1.49 ± 0.30%
Tension (%) [2, 6]: −0.78 ± 0.50%
Tension (%) [2, 7]: −0.35 ± 0.73%
Tension (%) [2, 8]: 0.64 ± 0.49 %
effect on basic tension [2]: increased tension slightly but significantly
inhibitory activity for human butyrylcholine esterase [4]: inhibitory activity was confirmed
IC50 ([4]; read-out: Butyrylcholine esterase IC50): 540 nM
Amount of urination, proportion for value before administration (%) ([1]; 0.03 mg/kg): 73.9 ± 4.4%
At maximum urine flow rate Inner pressure of bladder, proportion for value before administration (%) ([1]; 0.03 mg/kg): 112.7 ± 6.6%
Maximum urine flow rate, proportion for value before administration (%) ([1]; 0.03 mg/kg): 75.1 ± 6.8%
Bladder compliance, proportion for value before administration (%) ([1]; 0.03 mg/kg): 64.6 ± 6.0%
Bladder volume, proportion for value before administration (%) ([1]; 0.03 mg/kg): 80.6 ± 3.3%
Amount of urination, proportion for value before administration (%) ([1]; 0.1 mg/kg): 89.8 ± 10.3%
At maximum urine flow rate Inner pressure of bladder, proportion for value before administration (%) ([1]; 0.1 mg/kg): 115.9 ± 4.2%
Maximum urine flow rate, proportion for value before administration (%) ([1]; 0.1 mg/kg): 76.4 ± 5.8%
Bladder compliance, proportion for value before administration (%) ([1]; 0.1 mg/kg): 53.4 ± 2.2 %
Bladder volume, proportion for value before administration (%) ([1]; 0.1 mg/kg): 83.6 ± 5.9%
Amount of urination, proportion for value before administration (%) ([1]; 0.3 mg/kg): 65.8 ± 11.9%
At maximum urine flow rate Inner pressure of bladder, proportion for value before administration (%) ([1]; 0.3 mg/kg): 142.4 ± 6.1 %
Maximum urine flow rate, proportion for value before administration (%) ([1]; 0.3 mg/kg): 49.2 ± 7.0%
Bladder compliance, proportion for value before administration (%) ([1]; 0.3 mg/kg): 68.3 ± 7.9%
Bladder volume, proportion for value before administration (%) ([1]; 0.3 mg/kg): 80.0 ± 4.5%
change of the parameters at urination and at collection of urine (text) [1]: lowered the bladder compliance significantly
change of the parameters at urination and at collection of urine (text) ([1]; listed as distigmine): did not show clear action for the amount of urination and the maximum urine flow rate and increased urination pressure significantly

CC(C)NP(=O)(NC(C)C)OP(=O)(NC(C)C)NC(C)C [iso-OMPA, tetraisopropylpyrophosphoramide]
Tension (%) ([2]; Table 5: iso-OMPA 10 μM, Compound A 0 μM): −1.31 ± 0.21%
Tension (%) ([2]; Table 5: iso-OMPA 100 μM, Compound A 0 μM): −0.85 ± 0.38%
effect on basic tension [2]: alone did not influence tension either
inhibitory activity for human butyrylcholine esterase [4]: showed the inhibitory activity to only butyrylcholine esterase

CN(CCCCC(=O)c1ccc2[nH]c(=O)[nH]c2c1)CCc1ccccc1Cl [Compound B2, 5-[5-[[2-(2-chlorophenyl)ethyl](methyl)amino]pentanoyl]-1,3-dihydro-2H-benzoimidazol-2-one) hydrochloride]
Selectivity b/a ([3]; BuChE IC50/AChE IC50 (Table 3)): >45
IC50 ([3]; read-out: AchE IC50): 224 nM
Bladder compliance, proportion for value before administration ([5]; 0.3 mg/kg): 95.0 ± 5.1
Maximum urine flow rate, proportion for value before administration ([5]; 0.3 mg/kg): 138.1 ± 13.1
IC50 ([4]; read-out: BuChE IC50): > 10000 nM

Cn1c(=O)n(C)c2cc(C(=O)CCCCNCCc3ccccc3Cl)ccc21 [Compound B6, 5-[5-[[2-(2-chlorophenyl)ethyl]amino]pentanoyl]-1,3-dimethyl-1,3-dihydro-2H-benzoimidazol-2-one) hydrochloride]
Selectivity b/a ([3]; BuChE IC50/AChE IC50 (Table 3)): >140
IC50 ([3]; read-out: AchE IC50): 71 nM
Bladder compliance, proportion for value before administration ([5]; 0.1 mg/kg): 98.6 ± 6.9
Maximum urine flow rate, proportion for value before administration ([5]; 0.1 mg/kg): 147.1 ± 26.2
IC50 ([4]; read-out: BuChE IC50): > 10000 nM

CN(CCCCC(=O)c1ccc2c(c1)n(C)c(=O)n2C)CCc1ccccc1Cl [Compound B3, 5-[5-[[2-(2-chlorophenyl)ethyl](methyl)amino]pentanoyl]-1,3-dimethyl-1,3-dihydro-2H-benzoimidazol-2-one) hydrochloride]
Selectivity b/a ([3]; BuChE IC50/AChE IC50 (Table 3)): >350
IC50 ([3]; read-out: AchE IC50): 28 nM
Bladder compliance, proportion for value before administration ([5]; 0.1 mg/kg): 94.7 ± 11.1
Maximum urine flow rate, proportion for value before administration ([5]; 0.1 mg/kg): 150.8 ± 19.4
IC50 ([4]; read-out: BuChE IC50): > 10000 nM
